In patent US20200375929A1, “METHODS AND COMPOSITIONS FOR THE TREATMENT OF DISEASES ASSOCIATED WITH CANCER, INFLAMMATION, OR IMMUNE RESPONSE” (Washington University, priority 2017, published 2020):
“Also recorded” adds a separate entry of the source.

Legend:
human CD14+ monocytes = assay: Cytokine production in LPS-stimulated human monocytes (ELISA); format: cell-based; details: DI 12 h, LPS 24 h
Procedure: Cytokines in cell supernatants were analyzed using DuoSet® ELISA kits according to manufacturer protocol (R&D Systems). The supernatants from BMDMs were diluted 1:4, from human blood monocytes 1:3.
Blood from healthy donors was acquired from LRS chambers supplied by the Mississippi Valley Regional Blood Center. Peripheral blood mononuclear cells (PBMCs) from buffy coats were recovered from the Ficoll interface after a 400 g centrifugation for 30 min. Monocytes were isolated by adherence on a cell culture dish for 1 h at 37° C. and 5% C02 in RPMI containing 1% Human Serum Albumin (Albutein, Grifols, Spain). After extensive washes to allow removal of non-adherent cells, monocytes (>95% purity) were harvested, counted and 5×10^5 cells were plated per well in 24-well plates. The cells were treated with DI (125 μM if not stated otherwise) for 12 h and stimulated with LPS (100 ng/mL) for 1 h or as indicated. In some experiments cells were treated with DI in presence of EtGSH (1 mM, Santa Cruz).

Nfkbiz 3′UTR = Nfkbiz 3′UTR GFP reporter in BV2 cells (flow cytometry); format: cell-based, mouse; details: DI 250 μM 12 h, LPS 1 h
Procedure: Mouse Nfkbiz 3′UTR Lenti-reporter-GFP (#MT-m64048) vector or pLenti-UTR-GFR-Blank vector (#m014) were purchased from Applied Biological Materials. For lentiviral production transfection mixture of 1.5-mL of Opti-MEM medium (Invitrogen), 18 μg of psPAX2 (gift from Didier Trono, Addgene plasmid #12260), 13 μg of pCMV-V-SVG (gift from Bob Weinberg, Addgene plasmid #8454), 20 μg of lentiviral construct, and 105 μL of polyethylenimine (1 mg/mL; 25 kDa; linear form; Polysciences). The mixture was incubated at room temperature for 20 min and added to HEK-293T cells (ATCC) cultured in DMEM supplemented with 10% FBS, 2 mM L-glutamine and 100 U/mL penicillin-streptomycin in 150-cm2 tissue culture flask. 48 h later, virus-containing medium was filtered through […] pore-size cellulose acetate filters and used directly for BV2 transduction in the presence of polybrene (8 μg/mL, Millipore). […]
For ROS measurements, cells were treated with DI (250 μM), loaded with 10 μM CM-H2DCFDA (Invitrogen) at RT for 30 min in Hank's balanced salt solution (HBSS). After incubation, cell were rinsed with warm HBSS, harvested and directly analyzed. […] For Nfkbiz 3′UTR reporter analysis GFP signal was determined in live cells. […] Cells were acquired on CantoII or LSRII flow cytometers (Becton Dickinson), and data were analyzed with FlowJo v.9.5.2 software (Tree Star). […]

IκBζ = assay: IL-17A-induced IκBζ in primary mouse keratinocytes (western blot); format: cell-based; details: DI 12 h, IL-17A 100 ng/ml
Procedure: Cells were lysed in RIPA Lysis Buffer System (Santa Cruz) and heat-denatured at 95° C. for 5 min in reducing sample buffer (BioRad). Proteins were separated on 4%-20% polyacrylamide gradient gels (BioRad) and transferred onto 0.45 μm pore size PVDF membranes (Millipore). Non-specific binding was blocked with 5% skim milk (or 5% BSA when phospho-proteins were analyzed), and membranes were probed with primary antibodies specific to Nrf2 (#12721), HO-1 (#70081), IκBζ (mouse specific, #93726), IκBζ(#9244), ATF3 (#D2Y5W), IRAK1 (#4504; sensitivity of IRAK1 detection diminishes upon IRAK1 K63 ubiquitination), phospho-IKK (Ser176/180, #2697), p62/SQSTM1 (#5114), phospho-eIF2α (Ser51, #9721), eIF2α (#5324) from Cell Signaling; GAPDH (sc-25778), IκBα (sc-1643), ATF3 (sc-188), SDHA (sc-166909) from Santa Cruz; NQO1 (ab28947) from Abeam, followed by incubation with anti-rabbit-HRP (1:10,000; sc-2030) or anti-mouse-HRP (1:10,000; sc-2031) from Santa Cruz and Clarity western ECL substrate (Bio-Rad). Membranes were exposed to X-Ray films (Research Products International Corp.) and developed using SRX-101A film processor (Konica Minolta). GAPDH run on the same blot was used as loading control. After scanning of original films image brightness of some blots was adjusted and bands were cropped using ImageJ. Densitometry was performed using ImageJ. […]

C=C(CC(=O)OC)C(=O)OC [DI, dimethyl itaconate]
LPS-induced cytokine production (human CD14+ monocytes): inhibition of cytokine production
Nfkbiz 3′UTR reporter GFP expression (Nfkbiz 3′UTR): did not affect expression of reporter gene GFP; also recorded: not due to regulation of Nfkbiz 3′UTR
IL-17-induced IκBζ induction (IκBζ): inhibited
